Columns and labels:
[1] = tested on: H207 (ovarian human carcinoma); test: Tumor growth model for treated subjects, H207 inoculated subcutaneously in athymic nude mice (Experiment-C); type: in vivo; conditions: average growth curve
Protocol: The cell line H207 (ovarian human carcinoma) was inoculated subcutaneously on the back of 70 female athymic nude mice, initially weighing 17.0-25.0 g. […] Cage G2: 7 mice, treated with 3 iv-bolus of Drug-C, repeated every 7 days (therapeutic regimen q7d×3), at a dosing of 0.39 mg/kg. • III. Cage G3: 7 mice, treated with iv-bolus of Drug-C at the therapeutic regimen q7d×3, at a dosing of 0.52 mg/kg. • IV. […] Cage G6: 7 mice, treated with iv-bolus of Drug-C at the therapeutic regimen q4d×3, at a dosing of 0.39 mg/kg. • VII. Cage G8: 7 mice, treated with iv-bolus of Drug-C at the therapeutic regimen q4d×3, at a dosing of 0.52 mg/kg. • VIII. Cage G9: 7 mice, treated with 10 iv-bolus of Drug-C, subdivided in 2 cycles of treatment of 5 daily iv-bolus followed by 2 days of rest (therapeutic regimen qd×5×2 wks), at the dosing of 0.117 mg/kg each. • IX. Cage G10: 7 mice treated at the same treatment and therapeutic regimen of G4, but with the drug coming from a different batch of production.
In this case, despite the silent interval finished in correspondence of the tenth day (where the first measurement of the tumor mass was carried out), the chemotherapeutic treatment started in correspondence of the eleventh day.
The dimensions of the tumor can be taken applying different types of measurements broadly classifiable as measurements of linear dimensions, of volume (or mass) and cell number. For tumors that maintain more or less a spherical morphology, as in the case of solid tumors, the measurement of the three principal diameters results the most adequate, as well as the most practiced solution. Nevertheless, in the case of subcutaneous tumors, the tumor can be considered of spherical shape only during the initial phase of growth; in the following phases, the dimension perpendicular to the skin is generally much smaller than the percutaneous dimensions, conferring to the mass a plaque-like shape or an hemi-ellipsoidal shape. In the experiments taken into consideration, only the dimensions of the two percutaneous diameters were directly measured with vernier calipers. The third dimension was not directly measured, because of the limited accessibility (which would have required a greater invasiveness), in the assumption that two measures were anyhow sufficient to guarantee a good approximation of the tumor mass (K. Rygaard and M. Spang-Thomsen, “Quantitation and Gompertzian analysis of tumor growth”. Breast Cancer Research and Treatment, 46: 303-312,1997).
The volume of a tumor can be indirectly calculated by applying the following empirical formula: [formula] where DMIN and DMAX denote, respectively, the smallest and the largest percutaneous diameter. Such empirical formula hypothesizes that the neoplasia has an ellipsoidal shape (D. A. Cameron, W. M. Gregory, A. Bowman, E. D. C. Anderson, P. Levack, P. Forouhi and R. F. C. Leonard, “Identification of long-term survivors in primary breast cancer by dynamic modeling of tumour response”. British Journal of Cancer, 83(1): 98-103, 2000, Hammond, L. A.; Hilsenbeck, S. G.; Eckhardt, S. G.; Marty, J; Mangold, G.; MacDonald, G. R.; Rowinsky, E. K.; Von Hoff, D. D; Weitman S. Enhanced antitumour activity of 6-hydroxymethylacylfulvene in combination with topotecan or paclitaxel in the MV522 lung carcinoma xenograft model. European Journal of Cancer 2000, 36, 2430-2436) obtained by the rotation of a hemi-ellipsoid (with DMIN and DMAX as axes of the percutaneous plane) around its largest axe. Assuming δ as a constant density equal to δ=10^−3g/mm^3, the empirical expression for the mass of the neoplasia results to be: [formula] The Measurement Error Model

[2] = tested on: H207 (ovarian human carcinoma); test: as above; type: in vivo; conditions: average growth curve; remark: listed apart in the source
[3] = three-compartment PK model; known average value; cited from earlier work
[4] = cage G2, 0.39 mg/kg iv-bolus q7dx3
[5] = cage G3, 0.52 mg/kg iv-bolus q7dx3
[6] = cage G4, 0.78 mg/kg iv-bolus q7dx3
[7] = cage G5, 0.26 mg/kg iv-bolus q4dx3
[8] = cage G6, 0.39 mg/kg iv-bolus q4dx3
[9] = cage G7, 0.52 mg/kg iv-bolus q4dx3
[10] = cage G8, 0.117 mg/kg iv-bolus qdx5x2wks
[11] = cage G9, 0.156 mg/kg iv-bolus qdx5x2wks
[12] = cage G10, 0.78 mg/kg iv-bolus q7dx3, drug from a different batch

C=C(Br)C(=O)Nc1cc(C(=O)Nc2cc(C(=O)Nc3cc(C(=O)Nc4cc(C(=O)NCCNC(=N)N)n(C)c4)n(C)c3)n(C)c2)n(C)c1 [Drug-C, brostallicin]
K1 (index of the tumor cells death rate) [1, 4]: 0.289 day⁻¹
K2 (index of the potency of the compound) [1, 4]: 0.1731 mL/g/day
λ0 (production rate of tumor cells, exponential phase) [1, 4]: 0.2886
λ1 (tumor cells mass produced in the time unit, linear phase) [1, 4]: 0.5183
K1 (index of the tumor cells death rate) [1, 5]: 0.2574 day⁻¹
K2 (index of the potency of the compound) [1, 5]: 0.1519 mL/g/day
λ0 (production rate of tumor cells, exponential phase) [1, 5]: 0.2757
λ1 (tumor cells mass produced in the time unit, linear phase) [1, 5]: 0.6241
K1 (index of the tumor cells death rate) [1, 6]: 0.2558 day⁻¹
K2 (index of the potency of the compound) [1, 6]: 0.1085 mL/g/day
λ0 (production rate of tumor cells, exponential phase) [1, 6]: 0.2297
λ1 (tumor cells mass produced in the time unit, linear phase) [1, 6]: 0.3193
K1 (index of the tumor cells death rate) [1, 7]: 0.2979 day⁻¹
K2 (index of the potency of the compound) [1, 7]: 0.2044 mL/g/day
λ0 (production rate of tumor cells, exponential phase) [1, 7]: 0.2728
λ1 (tumor cells mass produced in the time unit, linear phase) [1, 7]: 0.602
K1 (index of the tumor cells death rate) [1, 8]: 0.3486 day⁻¹
K2 (index of the potency of the compound) [1, 8]: 0.1698 mL/g/day
λ0 (production rate of tumor cells, exponential phase) [1, 8]: 0.2554
λ1 (tumor cells mass produced in the time unit, linear phase) [1, 8]: 0.2736
K1 (index of the tumor cells death rate) [1, 9]: 0.2488 day⁻¹
K2 (index of the potency of the compound) [1, 9]: 0.12 mL/g/day
λ0 (production rate of tumor cells, exponential phase) [1, 9]: 0.1966
λ1 (tumor cells mass produced in the time unit, linear phase) [1, 9]: 0.279
K1 (index of the tumor cells death rate) [1, 10]: 0.3766 day⁻¹
K2 (index of the potency of the compound) [1, 11]: 0.2829 mL/g/day
λ0 (production rate of tumor cells, exponential phase) [1, 11]: 0.2942
λ1 (tumor cells mass produced in the time unit, linear phase) [1, 11]: 0.1931
K1 (index of the tumor cells death rate) [1, 12]: 0.3789 day⁻¹
K2 (index of the potency of the compound) [1, 12]: 0.1558 mL/g/day
λ0 (production rate of tumor cells, exponential phase) [1, 12]: 0.2969
λ1 (tumor cells mass produced in the time unit, linear phase) [1, 12]: 0.2177
K2 (index of the potency of the compound) [2, 10]: 0.2081 mL/g/day
λ0 (production rate of tumor cells, exponential phase) [2, 10]: 0.2611
λ1 (tumor cells mass produced in the time unit, linear phase) [2, 10]: 0.581
K1 (index of the tumor cells death rate) [2, 11]: 0.4152 day⁻¹
K10 [3]: 134.7 day⁻¹
K12 [3]: 42.33 day⁻¹
K13 [3]: 13.28 day⁻¹
K21 [3]: 48.7 day⁻¹
K31 [3]: 5.898 day⁻¹
Vd [3]: 181.1 mL/kg

— patent US20050143927A1, “Method for estimating or predicting the anti-tumor activity of a compound and for estimating or predicting the tumor growth in mammals” (Pharmacia Italia S.p.A., priority 2002, published 2005)
